Each molecule was assayed against T1, GR (Homo sapiens, UniProt P04150) (assay: In Vitro GR Luciferase Reporter Assay (antagonist mode, CHO-K1-GR-MMTV-Luc reporter cells)). Settings: antagonist mode, 10 nM Dexamethasone.
T1 construct: expressed in transfected cells; host or cells: CHO-K1
T1 sequence (P04150 1-777): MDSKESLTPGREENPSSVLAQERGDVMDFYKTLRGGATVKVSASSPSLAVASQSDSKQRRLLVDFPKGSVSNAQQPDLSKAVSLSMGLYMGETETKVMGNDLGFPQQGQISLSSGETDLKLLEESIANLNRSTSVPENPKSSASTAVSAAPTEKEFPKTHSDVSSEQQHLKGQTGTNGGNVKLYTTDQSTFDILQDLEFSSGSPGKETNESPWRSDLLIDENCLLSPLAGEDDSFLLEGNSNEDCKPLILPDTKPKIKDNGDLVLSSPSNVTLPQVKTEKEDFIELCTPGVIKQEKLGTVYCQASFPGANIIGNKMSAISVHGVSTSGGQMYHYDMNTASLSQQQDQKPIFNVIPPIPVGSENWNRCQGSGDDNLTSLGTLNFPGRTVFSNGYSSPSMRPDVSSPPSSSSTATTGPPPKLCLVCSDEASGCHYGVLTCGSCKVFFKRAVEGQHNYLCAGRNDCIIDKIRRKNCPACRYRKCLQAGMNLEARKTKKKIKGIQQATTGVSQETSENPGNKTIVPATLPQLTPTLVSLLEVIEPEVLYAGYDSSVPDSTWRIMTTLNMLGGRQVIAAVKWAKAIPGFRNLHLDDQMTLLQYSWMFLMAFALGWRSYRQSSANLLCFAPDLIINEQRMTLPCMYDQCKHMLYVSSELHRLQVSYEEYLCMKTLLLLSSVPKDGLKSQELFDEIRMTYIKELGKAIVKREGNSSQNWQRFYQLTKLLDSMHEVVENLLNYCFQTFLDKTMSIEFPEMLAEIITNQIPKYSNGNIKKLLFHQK
Assay type: cell-based
Summary of the method: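 Antagonist mode: compounds (8 serial 1:5 dilutions) added to GR-MMTV-luciferase CHO-K1 reporter cells co-exposed to 10 nM dexamethasone final, in phenol red-free DMEM plus 10% CSS. After roughly 18-24 h at 37° C, OneGlo luminescence read and IC50 calculated.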

Row | SMILES | IC50 [nM]
1 | Cn1ccc(S(=O)(=O)[C@H]2CCC3=Cc4c(cnn4-c4ccc(F)cc4)C[C@]3(C(=O)c3ncc(C(F)(F)F)s3)C2)n1 [Example 264, ((4aS,6S)-1-(4-fluorophenyl)-6-((1-methyl-1H-pyrazol-3-yl)sulfonyl)-1,4,5,6,7,8-hexahydro-4aH-benzo[f]indazol-4a-yl)(5-(trifluoromethyl)thiazol-2-yl)methanone] | ≤ 100
2 | O=C(c1ncc(C(F)(F)F)s1)[C@]12Cc3cnn(-c4ccc(F)cc4)c3C=C1CC[C@H](N(C1CC1)S(=O)(=O)c1ccc(Cl)nc1)C2 [Example 271, 6-chloro-N-cyclopropyl-N-((4aS,6S)-1-(4-fluorophenyl)-4a-(5-(trifluoromethyl)thiazole-2-carbonyl)-4,4a,5,6,7,8-hexahydro-1H-benzo[f]indazol-6-yl)pyridine-3-sulfonamide] | ≤ 100
3 | O=C(c1cc(Cl)ccn1)[C@]12Cc3cnn(-c4ccc(F)cc4)c3C=C1CC[C@H](N(CC1CC1)S(=O)(=O)c1ccc(F)cc1)C2 [Example 275, N-((4aS,6S)-4a-(4-chloropicolinoyl)-1-(4-fluorophenyl)-4,4a,5,6,7,8-hexahydro-1H-benzo[f]indazol-6-yl)-N-(cyclopropylmethyl)-4-fluorobenzenesulfonamide] | ≤ 100
4 | O=C(c1cc(Cl)ccn1)[C@]12Cc3cnn(-c4ccc(F)cc4)c3C=C1CC[C@H](N(CC1(O)CC1)S(=O)(=O)c1ccc(F)cc1)C2 [Example 276, N-((4aS,6S)-4a-(4-chloropicolinoyl)-1-(4-fluorophenyl)-4,4a,5,6,7,8-hexahydro-1H-benzo[f]indazol-6-yl)-4-fluoro-N-((1-hydroxycyclopropyl)methyl) benzenesulfonamide] | ≤ 100
5 | Cn1ccc(S(=O)(=O)N([C@H]2CCC3=Cc4c(cnn4-c4ccc(F)cc4)C[C@]3(C(=O)c3cc(F)ccn3)C2)[C@H]2C[C@@](C)(O)C2)n1 [Example 284, N-((4aS,6S)-1-(4-fluorophenyl)-4a-(4-fluoropicolinoyl)-4,4a,5,6,7,8-hexahydro-1H-benzo[f]indazol-6-yl)-N-((1s,3R)-3-hydroxy-3-methylcyclobutyl)-1-methyl-1H-pyrazole-3-sulfonamide] | ≤ 100
6 | O=C(c1ccc(F)cc1)N(C1CC1)[C@H]1CCC2=Cc3c(cnn3-c3ccc(F)cc3)C[C@]2(C(=O)c2ncc(C(F)(F)F)s2)C1 [Example 291, N-cyclopropyl-4-fluoro-N-((4aS,6S)-1-(4-fluorophenyl)-4a-(5-(trifluoromethyl)thiazole-2-carbonyl)-4,4a,5,6,7,8-hexahydro-1H-benzo[f]indazol-6-yl)benzamide] | 100 to 1000
7 | Cn1ncc(S(=O)(=O)N(CC2(O)CC2)[C@H]2CCC3=Cc4c(cnn4-c4ccc(F)cc4)C[C@]3(C(=O)c3ncc(C(F)(F)F)s3)C2)n1 [Example 292, N-((4aS,6S)-1-(4-fluorophenyl)-4a-(5-(trifluoromethyl)thiazole-2-carbonyl)-4,4a,5,6,7,8-hexahydro-1H-benzo[f]indazol-6-yl)-N-((1-hydroxycyclopropyl)methyl)-2-methyl-2H-1,2,3-triazole-4-sulfonamide] | ≤ 100
8 | Cn1cc(S(=O)(=O)N(CC2CC2)[C@H]2CCC3=Cc4c(cnn4-c4ccc(F)cc4)C[C@]3(C(=O)c3cc(F)ccn3)C2)nn1 [Example 297, N-(cyclopropylmethyl)-N-((4aS,6S)-1-(4-fluorophenyl)-4a-(4-fluoropicolinoyl)-4,4a,5,6,7,8-hexahydro-1H-benzo[f]indazol-6-yl)-1-methyl-1H-1,2,3-triazole-4-sulfonamide] | ≤ 100
9 | CC(C)(O)CN([C@H]1CCC2=Cc3c(cnn3-c3ccc(F)cc3)C[C@]2(C(=O)c2cc(C(F)(F)F)ccn2)C1)S(=O)(=O)c1ccc(Cl)nc1 [Example 302, 6-chloro-N-((4aS,6S)-1-(4-fluorophenyl)-4a-(4-(trifluoromethyl)picolinoyl)-4,4a,5,6,7,8-hexahydro-1H-benzo[f]indazol-6-yl)-N-(2-hydroxy-2-methylpropyl)pyridine-3-sulfonamide] | ≤ 100
10 | CC(C)(O)CN([C@H]1CCC2=Cc3c(cnn3-c3ccc(F)cc3)C[C@]2(C(=O)c2ncc(C(F)(F)F)s2)C1)S(=O)(=O)c1ccc(Cl)nc1 [Example 303, 6-chloro-N-((4aS,6S)-1-(4-fluorophenyl)-4a-(5-(trifluoromethyl)thiazole-2-carbonyl)-4,4a,5,6,7,8-hexahydro-1H-benzo[f]indazol-6-yl)-N-(2-hydroxy-2-methylpropyl)pyridine-3-sulfonamide] | ≤ 100
11 | CC(C)(O)CN([C@H]1CCC2=Cc3c(cnn3-c3ccc(F)cc3)C[C@]2(C(=O)c2cc(F)ccn2)C1)S(=O)(=O)c1ccc(Cl)nc1 [Example 304, 6-chloro-N-((4aS,6S)-1-(4-fluorophenyl)-4a-(4-fluoropicolinoyl)-4,4a,5,6,7,8-hexahydro-1H-benzo[f]indazol-6-yl)-N-(2-hydroxy-2-methylpropyl)pyridine-3-sulfonamide] | ≤ 100
12 | Cn1cc(S(=O)(=O)[C@H]2CCC3=Cc4c(cnn4-c4ccc(F)cc4)C[C@]3(C(=O)c3cc(F)ccn3)C2)cn1 [Example 314, ((4aS,6S)-1-(4-fluorophenyl)-6-((1-methyl-1H-pyrazol-4-yl)sulfonyl)-1,4,5,6,7,8-hexahydro-4aH-benzo[f]indazol-4a-yl)(4-fluoropyridin-2-yl)methanone] | ≤ 100
13 | Cn1cnc(S(=O)(=O)N(CC2CC2)[C@H]2CCC3=Cc4c(cnn4-c4ccc(F)cc4)C[C@]3(C(=O)c3cc(C(F)(F)F)ccn3)C2)n1 [Example 316, N-(cyclopropylmethyl)-N-((4aS,6S)-1-(4-fluorophenyl)-4a-(4-(trifluoromethyl)picolinoyl)-4,4a,5,6,7,8-hexahydro-1H-benzo[f]indazol-6-yl)-1-methyl-1H-1,2,4-triazole-3-sulfonamide] | ≤ 100
14 | Cn1cc(S(=O)(=O)N(CC(F)(F)F)[C@H]2CCC3=Cc4c(cnn4-c4ccc(F)cc4)C[C@]3(C(=O)c3cc(C(F)(F)F)ccn3)C2)nn1 [Example 318, N-((4aS,6S)-1-(4-fluorophenyl)-4a-(4-(trifluoromethyl)picolinoyl)-4,4a,5,6,7,8-hexahydro-1H-benzo[f]indazol-6-yl)-1-methyl-N-(2,2,2-trifluoroethyl)-1H-1,2,3-triazole-4-sulfonamide] | ≤ 100

Continued, values first:

Row | IC50 [nM] | SMILES
15 | ≤ 100 | O=C(c1cc(F)ccn1)[C@]12Cc3cnn(-c4ccc(F)cc4)c3C=C1CC[C@H](N(CC1CC1)S(=O)(=O)c1ccc(F)cc1)C2 [Example 274, N-(cyclopropylmethyl)-4-fluoro-N-((4aS,6S)-1-(4-fluorophenyl)-4a-(4-fluoropicolinoyl)-4,4a,5,6,7,8-hexahydro-1H-benzo[f]indazol-6-yl)benzenesulfonamide]
16 | ≤ 100 | CC(C)N([C@H]1CCC2=Cc3c(cnn3-c3ccc(F)cc3)C[C@]2(C(=O)c2cc(F)ccn2)C1)S(=O)(=O)c1cnn(C)n1 [Example 278, N-((4aS,6S)-1-(4-fluorophenyl)-4a-(4-fluoropicolinoyl)-4,4a,5,6,7,8-hexahydro-1H-benzo[f]indazol-6-yl)-N-isopropyl-2-methyl-2H-1,2,3-triazole-4-sulfonamide]
17 | ≤ 100 | CC(C)N(C(=O)C1CCCC1)[C@H]1CCC2=Cc3c(cnn3-c3ccc(F)cc3)C[C@]2(C(=O)c2ncc(C(F)(F)F)s2)C1 [Example 281, N-((4aS,6S)-1-(4-fluorophenyl)-4a-(5-(trifluoromethyl)thiazole-2-carbonyl)-4,4a,5,6,7,8-hexahydro-1H-benzo[f]indazol-6-yl)-N-isopropylcyclopentanecarbox-amide]
18 | ≤ 100 | O=C(c1cc(C(F)(F)F)ccn1)[C@]12Cc3cnn(-c4ccc(F)cc4)c3C=C1CC[C@H](N(C1CC1)S(=O)(=O)c1ccc(C(F)(F)F)nc1)C2 [Example 285, N-cyclopropyl-N-((4aS,6S)-1-(4-fluorophenyl)-4a-(4-(trifluoromethyl)picolinoyl)-4,4a,5,6,7,8-hexahydro-1H-benzo[f]indazol-6-yl)-6-(trifluoromethyl)pyridine-3-sulfonamide]
19 | ≤ 100 | Cn1cc(S(=O)(=O)N(CC(C)(C)O)[C@H]2CCC3=Cc4c(cnn4-c4ccc(F)cc4)C[C@]3(C(=O)c3ncc(C(F)(F)F)s3)C2)nn1 [Example 301, N-((4aS,6S)-1-(4-fluorophenyl)-4a-(5-(trifluoromethyl)thiazole-2-carbonyl)-4,4a,5,6,7,8-hexahydro-1H-benzo[f]indazol-6-yl)-N-(2-hydroxy-2-methylpropyl)-1-methyl-1H-1,2,3-triazole-4-sulfonamide]
20 | ≤ 100 | Cn1cc(S(=O)(=O)[C@H]2CCC3=Cc4c(cnn4-c4ccc(F)cc4)C[C@]3(C(=O)c3cc(Cl)ccn3)C2)cn1 [Example 317, (4-chloropyridin-2-yl)((4aS,6S)-1-(4-fluorophenyl)-6-((1-methyl-1H-pyrazol-4-yl)sulfonyl)-1,4,5,6,7,8-hexahydro-4aH-benzo[f]indazol-4a-yl)methanone]

— US20210122730A1, “GLUCOCORTICOID RECEPTOR MODULATORS” (ORIC Pharmaceuticals, Inc., priority 2017, published 2021)
